# Test results published in patent publication US10889555B2, “Sulfonamide compound or salt thereof” (Taiho Pharmaceutical Co., Ltd., priority 2016, dated 2021).
# System: HCC 1806 cells
# Assay: Cell proliferation inhibitory effect on human breast cancer cell line (crystal violet, 72 hours)
# Format: cell-based
# Details: Homo sapiens, HCC1806, 72 h, read-out: Cell growth suppression IC50
# Description: Human derived breast cancer cell line HCC 1806 cells were daily passaged at a cell density not exceeding 80% in ATCC recommended Roswell Park Memorial Institute medium (RPMI-1640) containing 10% fetal bovine serum (FBS). In order to start the test of cell proliferation inhibitory activity, HCC 1806 cells were suspended in the above medium, after seeing at 180 μL in each well of a 96-well flat bottom plate so that the number of cells per well was 2,000, the cells were cultured at 37° C. for 1 day in an incubator containing 5% carbon dioxide gas. On the next day, the test compound was dissolved in DMSO, and 20 μL of a drug additive solution diluted serially with distilled water to 10 times of the final concentration was added to each well of the culture plate of the cells, and the cells were cultured at 37° C. for 72 hours in an incubator containing 5% carbon dioxide gas. After culturing for 72 hours, 20 μL of glutaraldehyde was added to each well and allowed to stand for 30 minutes, then the plate was washed 10 times with water and was dried. 100 μL of a stain solution (0.05% crystal violet in a 20% methanol solution) was added to each well and allowed to stand for 30 minutes, then the plate was washed 10 times with water and was dried. 100 μL of an extract solution (0.1 N NaH2PO4: 100% ethanol=1:1) was added to each well and mixed, and the mixture was measured at a wavelength of 540 nm using a plate reader (MTP-450 manufactured by Corona Electric Co., Ltd.). The growth inhibition rate was calculated from the following formula, and the concentration (IC50 (μM)) of a test compound inhibiting 50% was determined. Growth inhibition rate (%)={(C−B)−(T−B)}/(C−B)×100
# T: Absorbance of well to which test compound was added
# C: Absorbance of wells to which no test compound was added
# B: Absorbance of wells to which no cell suspension was added
row,Structure (SMILES),IC50 [nM]
1,"Cc1cc(S(=O)(=O)N[C@H](c2n[nH]c(=O)o2)[C@H](C)c2c(F)ccc(C)c2C)c(C(N)=O)cc1Cl [Example 257, 5-chloro-2-(N-((1S,2R)-2-(6-fluoro-2,3-dimethylphenyl)-1-(5-oxo-4,5-dihydro-1,3,4-oxadiazol-2-yl)propyl)sulfamoyl)-4-methylbenzamide]",200
2,"Cc1ccc(F)c([C@@H](C)[C@H](NS(=O)(=O)c2ccc(C(F)(F)F)cc2C(N)=O)c2n[nH]c(=O)o2)c1C [Example 41, 2-(N-((1S,2R)-2-(6-fluoro-2,3-dimethylphenyl)-1-(5-oxo-4,5 dihydro-1,3,4-oxadiazol-2-yl)propyl)sulfamoyl)-5-(trifluoromethyl)benzamide]",400
3,"Cc1c(Br)ccc(F)c1[C@@H](C)[C@H](NS(=O)(=O)c1ccc(Cl)c2c1OCCC2(C)N)c1n[nH]c(=O)o1 (stereo partly drawn) [Example 329, 4-amino-N-((1S,2R)-2-(3-bromo-6-fluoro-2-methylphenyl)-1-(5-oxo-4,5-dihydro-1,3,4-oxadiazol-2-yl)propyl)-5-chloro-4-methyl-chroman-8-sulfonamide]",240
4,"CCc1ccc(F)c([C@@H](C)[C@H](NS(=O)(=O)c2ccc(Cl)c3c2OCCC3O)c2n[nH]c(=O)o2)c1C (single isomer, unassigned) [Example 239A]",720
5,"Cc1c(Cl)ccc(F)c1[C@@H](C)[C@H](NS(=O)(=O)c1ccc(Cl)c2c1OCCC2(C)N)c1n[nH]c(=O)o1 (single isomer, unassigned) [Example 330A]",240
6,"Cc1ccc(F)c([C@@H](C)[C@H](NS(=O)(=O)c2cnc(Cl)cc2C(N)=O)c2n[nH]c(=O)o2)c1C [Example 40, 2-chloro-5-(N-((1S,2R)-2-(6-fluoro-2,3-dimethylphenyl)-1-(5-oxo-4,5-dihydro-1,3,4-oxadiazol-2-yl)propyl)sulfamoyl)isonicotinamide]",590
7,"Cc1ccc(F)c([C@@H](C)[C@H](NS(=O)(=O)c2ccc(Cl)nc2C(N)=O)c2n[nH]c(=O)o2)c1C [Example 19, 6-Chloro-3-(N-((1S,2R)-2-(6-fluoro-2,3-dimethylphenyl)-1-(5-oxo-4,5-dihydro-1,3,4-oxadiazol-2-yl)propyl)sulfamoyl)picolinamide]",940
8,"Cc1c(Br)ccc(F)c1[C@@H](C)[C@H](NS(=O)(=O)c1ccc(F)c2c1OCCC2(C)O)c1n[nH]c(=O)o1 (single isomer, unassigned) [Example 227A]",190
9,"COc1cc(Cl)ccc1S(=O)(=O)N[C@H](c1n[nH]c(=O)o1)[C@H](C)c1c(F)ccc(-c2cnn(C(F)F)c2)c1C [Example 304, 4-chloro-N-((1S,2R)-2-(3-(1-(difluoromethyl)-1H-pyrazol-4-yl)-6-fluoro-2-methylphenyl)-1-(5-oxo-4,5-dihydro-1,3,4-oxadiazol-2-yl)propyl)-2-methoxybenzenesulfonamide]",940
10,"Cc1ccc(S(=O)(=O)N[C@H](c2n[nH]c(=O)o2)[C@H](C)c2c(F)ccc(C)c2C)c(C(N)=O)c1 [Example 10, 2-(N-((1S,2R)-2-(3-6-fluoro-2,3-dimethylphenyl)-1-(5-oxo-4,5-dihydro-1,3,4-oxadiazol-2-yl)propyl)sulfamoyl)-5-methylbenzamide]",560

# Second part, the compound after the results:
row,IC50 [nM],Structure (SMILES)
1,140,"Cc1c(Cl)ccc(F)c1[C@@H](C)[C@H](NS(=O)(=O)c1ncc(Cl)cc1C(N)=O)c1n[nH]c(=O)o1 [Example 249, 5-chloro-2-(N-((1S,2R)-2-(3-chloro-6-fluoro-2-methylphenyl)-1-(5-oxo-4,5-dihydro-1,3,4-oxadiazol-2-yl)propyl)sulfamoyl)nicotinamide]"
2,440,"COc1cc(Cl)ccc1S(=O)(=O)N[C@H](c1n[nH]c(=O)o1)[C@H](C)c1c(F)ccc2ccccc12 [Example 76, 4-chloro-N-((1S,2R)-2-(2-fluoronaphthalen-1-yl)-1-(5-oxo-4,5-dihydro-1,3,4-oxadiazol-2-yl)propyl)-2-methoxybenzenesulfonamide]"
3,100,"Cc1ccc(F)c([C@@H](C)[C@H](NS(=O)(=O)c2ccc(F)c3c2OCCC3(C)O)c2n[nH]c(=O)o2)c1C (single isomer, unassigned) [Example 224A]"
4,390,"CC(=O)OC1(C)CCOc2c(S(=O)(=O)N[C@H](c3n[nH]c(=O)o3)[C@H](C)c3c(F)ccc(Cl)c3C)ccc(Cl)c21 (stereo partly drawn) [Example 100, 5-chloro-8-(N-((1S,2R)-2-(3-chloro-6-fluoro-2-methylphenyl)-1-(5-oxo-4,5-dihydro-1,3,4-oxadiazol-2-yl)propyl)sulfamoyl)-4-methylchroman-4-yl acetate]"
5,380,"CC(=O)OC1(C(F)(F)F)CCOc2c1cccc2S(=O)(=O)N[C@H](c1n[nH]c(=O)o1)[C@H](C)c1c(F)ccc(C)c1C (stereo partly drawn) [Example 106, 8-(N-((1S,2R)-2-(6-fluoro-2,3-dimethylphenyl)-1-(5-oxo-4,5-dihydro-1,3,4-oxadiazol-2-yl)propyl)sulfamoyl)-4-(tifluoromethyl)chroman-4-yl acetate]"
6,310,"Cc1ccc(F)c([C@@H](C)[C@H](NS(=O)(=O)c2ccc(Cl)c(C(=O)N3CC4CCC(C3)O4)n2)c2n[nH]c(=O)o2)c1C [Example 117, 6-(8-oxa-3-azabicyclo[3.2.1]octane-3-carbonyl)-5-chloro-N-((1S,2R)-2-(6-fluoro-2,3-dimethylphenyl)-1-(5-oxo-4,5 dihydro-1,3,4-oxadiazol-2-yl)propyl)pyridine-2-sulfonamide]"
7,280,"C[C@H](c1c(F)ccc2ccccc12)[C@H](NS(=O)(=O)c1ccc(Cl)c2c1OCCC2O)c1n[nH]c(=O)o1 (stereo partly drawn) [Example 233, 5-chloro-N-((1S,2R)-2-(2-fluoronaphthalene-1-yl)-1-(5-oxo 4,5-dihydro-1,3,4-oxadiazol-2-yl)propyl)-4-hydroxychroman-8-sulfonamide]"
8,330,"Cc1cccc2cccc([C@@H](C)[C@H](NS(=O)(=O)c3ccc(Cl)c4c3OCCC4O)c3n[nH]c(=O)o3)c12 (stereo partly drawn) [Example 232, 5-chloro-4-hydroxy-N-((1S,2R)-2-(8-methylnaphthalene-1-yl)-1-(5-oxo-4,5-dihydro-1,3,4-oxadiazol-2-yl)propyl)chroman-8-sulfonamide]"
9,790,"COc1cc(Cl)ccc1S(=O)(=O)N[C@H](c1n[nH]c(=O)o1)[C@H](C)c1cccc2cccc(C)c12 [Example 71, 4-chloro-2-methoxy-N-((1S,2R)-2-(8-methylnaphthalen-1-yl)-1-(5-oxo-4,5-dihydro-1,3,4-oxadiazol-2-yl)propyl)benzenesulfonamide]"
10,850,"Cc1ccc(F)c([C@@H](C)[C@H](NS(=O)(=O)c2cccc3c2OCCC3(O)C(F)(F)F)c2n[nH]c(=O)o2)c1C (stereo partly drawn) [Example 211A, N-((1S,2R)-2-(6-fluoro-2,3-dimethylphenyl)-1-(5-oxo-4,5-dihydro-1,3,4-oxadiazol-2-yl)propyl)-4-hydroxy-4-(tifluoromethyl)chroman-8-sulfonamide]"
11,520,"COc1cc(Cl)ccc1S(=O)(=O)N[C@H](c1n[nH]c(=O)o1)[C@H](C)c1c(F)ccc(-c2cnn(C3CC3)c2)c1C [Example 311, 4-chloro-N-((1S,2R)-2-(3-(1-cyclopropyl-1H-pyrazol-4-yl)-6-fluoro-2-methylphenyl)-1-(5-oxo-4,5-dihydro-1,3,4-oxadiazol-2-yl)propyl)-2-methoxybenzenesulfonamide]"
12,960,"COc1c(S(=O)(=O)N[C@H](c2n[nH]c(=O)o2)[C@H](C)c2c(F)ccc(C)c2C)ccc(Cl)c1C(C)OC(C)=O (stereo partly drawn) [Example 144, 1-(6-chloro-3-(N-((1S,2R)-2-(6-fluoro-2,3-dimethylphenyl)-1-(5-oxo-4,5-dihydro-1,3,4-oxadiazol-2-yl)propyl)sulfamoyl)-2-methoxyphenyl)ethyl acetate]"
13,370,"Cc1ccc(F)c([C@@H](C)[C@H](NS(=O)(=O)c2ccc(Cl)c3c2OCCN3)c2n[nH]c(=O)o2)c1C [Example 275, 5-chloro-N-((1S,2R)-2-(6-fluoro-2,3-dimethylphenyl)-1-(5-oxo-4,5-dihydro-1,3,4-oxadiazol-2-yl)propyl)-3,4-dihydro-2H-benzo[b][1,4]oxazine-8-sulfonamide]"

# Same assay, conditions: read-out: Cell growth suppression IC50
row,Structure (SMILES),IC50 [nM]
1,"Cc1ccc(F)c([C@@H](C)[C@H](NS(=O)(=O)c2ccc(Cl)c3c2OCCC3O)c2n[nH]c(=O)o2)c1C (single isomer, unassigned) [Example 235B]",400
2,"[2H]C([2H])([2H])C1(O)CCOc2c(S(=O)(=O)N[C@H](c3n[nH]c(=O)o3)[C@H](C)c3c(F)ccc(Br)c3C)ccc(Cl)c21 (single isomer, unassigned) [Example 226B]",300
3,"Cc1c(Br)ccc(F)c1[C@@H](C)[C@H](NS(=O)(=O)c1ccc(Cl)c2c1OCCC2(C)O)c1n[nH]c(=O)o1 (single isomer, unassigned) [Example 222B]",670
4,"Cc1ccc(F)c([C@@H](C)[C@H](NS(=O)(=O)c2ccc(Cl)c3c2OCCC3(C)O)c2n[nH]c(=O)o2)c1C (single isomer, unassigned) [Example 207B]",250
